Key:
Experiment in all cases: Kinase selectivity assay
Type in all cases: biochemical
ABL1 = target: T1, ABL1 (Homo sapiens, UniProt P00519); conditions: target ABL1; read-out: CP1 IC50
T1 construct: ICE Biosciences (Beijing, China), ran the assays
Procedure: (§1) The selectivity of CP1 for PRDX1 was evaluated through kinase selectivity assays against other PRDX family members and a panel of kinases. The experiments were conducted by ICE Biosciences (Beijing, China).

ABL2 = target: T2, ABL2 (Homo sapiens, UniProt P42684); conditions: target ABL2; read-out: CP1 IC50
T2 construct: ICE Biosciences (Beijing, China), ran the assays
Procedure: as §1

ALK = target: T3, ALK (Homo sapiens, UniProt Q9UM73); conditions: target ALK; read-out: CP1 IC50
T3 construct: ICE Biosciences (Beijing, China), ran the assays
Procedure: as §1

AXL = target: T4, AXL (Homo sapiens, UniProt P30530); conditions: target AXL; read-out: CP1 IC50
T4 construct: ICE Biosciences (Beijing, China), ran the assays
Procedure: as §1

BLK = target: T5, BLK (Homo sapiens, UniProt P51451); conditions: target BLK; read-out: CP1 IC50
T5 construct: ICE Biosciences (Beijing, China), ran the assays
Procedure: as §1

CSK = target: T6, CSK (Homo sapiens, UniProt P41240); conditions: target CSK; read-out: CP1 IC50
T6 construct: ICE Biosciences (Beijing, China), ran the assays
Procedure: as §1

EPHB4 = EPHB4 (Homo sapiens, UniProt P54760); conditions: target EPHB4; read-out: CP1 IC50
Procedure: as §1

ERBB2 = ERBB2 (Homo sapiens, UniProt P04626); conditions: target ERBB2; read-out: CP1 IC50
Procedure: as §1

FGFR2 = target: T7, FGFR2 (Homo sapiens, UniProt P21802); conditions: target FGFR2; read-out: CP1 IC50
T7 construct: assay run by ICE Biosciences (Beijing, China)
Procedure: as §1

FGFR3 = target: T8, FGFR3 (Homo sapiens, UniProt P22607); conditions: target FGFR3; read-out: CP1 IC50
T8 construct: assay run by ICE Biosciences (Beijing, China)
Procedure: as §1

FGFR4 = target: T9, FGFR4 (Homo sapiens, UniProt P22455); conditions: target FGFR4; read-out: CP1 IC50
T9 construct: assay run by ICE Biosciences (Beijing, China)
Procedure: as §1

FGR = target: T10, FGR (Homo sapiens, UniProt P09769); conditions: target FGR; read-out: CP1 IC50
T10 construct: assay run by ICE Biosciences (Beijing, China)
Procedure: as §1

FLT3 = target: T11, FLT3 (Homo sapiens, UniProt P36888); conditions: target FLT3; read-out: CP1 IC50
T11 construct: assay run by ICE Biosciences (Beijing, China)
Procedure: as §1

FLT4 = target: T12, FLT4 (Homo sapiens, UniProt P35916); conditions: target FLT4; read-out: CP1 IC50
T12 construct: assay run by ICE Biosciences (Beijing, China)
T12 sequence (P35916 25-1363): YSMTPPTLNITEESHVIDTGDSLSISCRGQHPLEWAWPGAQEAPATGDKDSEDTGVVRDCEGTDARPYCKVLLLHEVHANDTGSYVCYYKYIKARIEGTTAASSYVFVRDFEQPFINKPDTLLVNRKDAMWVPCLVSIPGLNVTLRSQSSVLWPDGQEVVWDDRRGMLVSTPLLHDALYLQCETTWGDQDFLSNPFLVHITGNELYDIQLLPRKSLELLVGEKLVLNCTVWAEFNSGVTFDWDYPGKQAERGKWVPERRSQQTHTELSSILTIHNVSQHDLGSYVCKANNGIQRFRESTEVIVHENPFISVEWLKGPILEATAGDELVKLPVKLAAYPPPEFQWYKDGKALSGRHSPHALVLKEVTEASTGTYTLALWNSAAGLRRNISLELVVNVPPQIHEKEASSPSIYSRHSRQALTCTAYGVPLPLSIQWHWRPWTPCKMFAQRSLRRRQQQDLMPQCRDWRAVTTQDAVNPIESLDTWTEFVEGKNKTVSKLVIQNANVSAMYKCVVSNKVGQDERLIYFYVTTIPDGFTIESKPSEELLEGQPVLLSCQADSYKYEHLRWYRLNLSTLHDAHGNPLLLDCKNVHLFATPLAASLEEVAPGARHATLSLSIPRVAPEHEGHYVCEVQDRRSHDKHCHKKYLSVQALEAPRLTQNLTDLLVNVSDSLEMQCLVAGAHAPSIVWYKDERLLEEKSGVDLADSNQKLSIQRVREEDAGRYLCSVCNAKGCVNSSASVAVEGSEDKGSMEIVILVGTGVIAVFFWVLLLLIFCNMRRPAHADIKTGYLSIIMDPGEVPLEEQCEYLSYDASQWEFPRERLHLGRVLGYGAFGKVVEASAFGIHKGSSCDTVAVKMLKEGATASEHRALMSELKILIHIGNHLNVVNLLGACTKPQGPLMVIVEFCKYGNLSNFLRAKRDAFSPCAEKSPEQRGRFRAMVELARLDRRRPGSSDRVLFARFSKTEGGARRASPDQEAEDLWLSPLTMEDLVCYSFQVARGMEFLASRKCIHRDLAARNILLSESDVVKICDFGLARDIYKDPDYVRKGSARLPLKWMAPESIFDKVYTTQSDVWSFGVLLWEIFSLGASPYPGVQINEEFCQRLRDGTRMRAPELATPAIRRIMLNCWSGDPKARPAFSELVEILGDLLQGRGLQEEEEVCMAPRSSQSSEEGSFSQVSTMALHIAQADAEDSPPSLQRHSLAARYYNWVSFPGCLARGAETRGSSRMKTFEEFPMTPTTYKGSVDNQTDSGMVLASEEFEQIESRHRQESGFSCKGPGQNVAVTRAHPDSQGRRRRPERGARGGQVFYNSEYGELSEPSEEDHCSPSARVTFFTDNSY
Procedure: as §1

HCK = target: T13, HCK (Homo sapiens, UniProt P08631); conditions: target HCK; read-out: CP1 IC50
T13 construct: ICE Biosciences (Beijing, China), ran the assays
Procedure: as §1

IGF1R = target: T14, IGF1R (Homo sapiens, UniProt P08069); conditions: target IGF1R; read-out: CP1 IC50
T14 construct: ICE Biosciences (Beijing, China), ran the assays
T14 sequence (P08069 31-1367): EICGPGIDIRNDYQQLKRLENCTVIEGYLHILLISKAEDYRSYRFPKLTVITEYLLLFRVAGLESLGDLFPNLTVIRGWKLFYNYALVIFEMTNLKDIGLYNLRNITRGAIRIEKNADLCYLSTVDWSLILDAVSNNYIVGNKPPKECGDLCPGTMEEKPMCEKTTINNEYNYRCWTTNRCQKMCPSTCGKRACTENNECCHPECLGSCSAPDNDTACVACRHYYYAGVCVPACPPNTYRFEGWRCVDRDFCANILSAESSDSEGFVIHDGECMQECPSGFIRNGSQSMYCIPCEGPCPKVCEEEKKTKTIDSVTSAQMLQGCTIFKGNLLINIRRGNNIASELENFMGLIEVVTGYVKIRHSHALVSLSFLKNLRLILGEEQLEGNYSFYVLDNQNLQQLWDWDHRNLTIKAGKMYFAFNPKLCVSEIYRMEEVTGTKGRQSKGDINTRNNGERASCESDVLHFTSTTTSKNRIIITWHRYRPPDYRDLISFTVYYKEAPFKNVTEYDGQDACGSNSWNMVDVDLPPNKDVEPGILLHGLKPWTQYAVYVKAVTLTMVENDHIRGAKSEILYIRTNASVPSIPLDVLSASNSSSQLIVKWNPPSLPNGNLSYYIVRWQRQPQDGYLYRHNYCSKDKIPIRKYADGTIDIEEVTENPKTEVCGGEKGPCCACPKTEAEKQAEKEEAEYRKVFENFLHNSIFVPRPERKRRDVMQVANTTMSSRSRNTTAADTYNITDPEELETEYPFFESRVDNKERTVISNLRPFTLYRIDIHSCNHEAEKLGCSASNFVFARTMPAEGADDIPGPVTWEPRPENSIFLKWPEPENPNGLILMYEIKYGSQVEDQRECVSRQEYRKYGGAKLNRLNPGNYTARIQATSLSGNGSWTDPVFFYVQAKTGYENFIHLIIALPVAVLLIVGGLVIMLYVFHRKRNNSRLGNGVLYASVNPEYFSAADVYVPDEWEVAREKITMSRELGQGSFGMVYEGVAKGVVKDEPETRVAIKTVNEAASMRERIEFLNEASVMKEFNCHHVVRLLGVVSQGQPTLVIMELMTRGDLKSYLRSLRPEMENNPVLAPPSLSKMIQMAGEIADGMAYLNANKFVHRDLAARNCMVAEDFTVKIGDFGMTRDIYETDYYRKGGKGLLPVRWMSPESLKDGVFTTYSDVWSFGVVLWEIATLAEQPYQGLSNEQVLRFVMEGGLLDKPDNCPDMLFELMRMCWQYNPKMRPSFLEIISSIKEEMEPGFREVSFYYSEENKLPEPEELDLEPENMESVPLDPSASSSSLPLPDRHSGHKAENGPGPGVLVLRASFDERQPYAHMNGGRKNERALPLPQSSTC
Procedure: as §1

INSRR = INSRR (Homo sapiens, UniProt P14616); conditions: target INSRR; read-out: CP1 IC50
Procedure: as §1

ITK = ITK (Homo sapiens, UniProt Q08881); conditions: target ITK; read-out: CP1 IC50
Procedure: as §1

JAK2 = JAK2 (Homo sapiens, UniProt O60674); conditions: target JAK2; read-out: CP1 IC50
Sequence of JAK2 (O60674 whole entry): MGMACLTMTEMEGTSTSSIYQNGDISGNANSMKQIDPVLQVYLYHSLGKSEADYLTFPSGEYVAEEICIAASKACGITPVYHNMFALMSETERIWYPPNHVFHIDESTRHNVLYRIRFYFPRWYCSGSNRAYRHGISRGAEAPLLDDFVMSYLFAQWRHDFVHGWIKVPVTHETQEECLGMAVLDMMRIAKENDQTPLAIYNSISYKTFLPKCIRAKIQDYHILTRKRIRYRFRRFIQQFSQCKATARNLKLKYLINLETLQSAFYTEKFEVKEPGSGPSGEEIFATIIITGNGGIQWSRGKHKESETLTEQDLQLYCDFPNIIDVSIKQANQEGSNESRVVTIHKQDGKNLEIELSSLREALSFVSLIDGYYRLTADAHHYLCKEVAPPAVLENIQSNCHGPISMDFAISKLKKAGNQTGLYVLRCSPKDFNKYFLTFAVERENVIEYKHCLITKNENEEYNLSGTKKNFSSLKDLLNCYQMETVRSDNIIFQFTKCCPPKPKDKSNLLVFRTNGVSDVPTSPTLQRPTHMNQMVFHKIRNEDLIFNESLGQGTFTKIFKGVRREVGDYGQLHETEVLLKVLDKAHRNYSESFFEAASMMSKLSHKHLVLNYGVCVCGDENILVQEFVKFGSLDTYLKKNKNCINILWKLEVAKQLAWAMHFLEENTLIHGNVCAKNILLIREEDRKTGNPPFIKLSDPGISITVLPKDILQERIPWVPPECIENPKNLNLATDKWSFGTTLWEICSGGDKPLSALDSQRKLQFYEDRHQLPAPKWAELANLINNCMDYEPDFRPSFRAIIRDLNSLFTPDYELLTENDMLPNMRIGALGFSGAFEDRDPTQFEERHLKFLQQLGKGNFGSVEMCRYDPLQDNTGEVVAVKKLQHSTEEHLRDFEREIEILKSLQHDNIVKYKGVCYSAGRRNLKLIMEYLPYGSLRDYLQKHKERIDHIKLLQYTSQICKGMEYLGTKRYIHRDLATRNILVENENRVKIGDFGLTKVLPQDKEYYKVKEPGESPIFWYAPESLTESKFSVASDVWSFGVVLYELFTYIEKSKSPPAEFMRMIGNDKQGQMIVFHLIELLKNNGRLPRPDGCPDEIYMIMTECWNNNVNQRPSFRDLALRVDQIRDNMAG
Procedure: as §1

JAK3 = JAK3 (Homo sapiens, UniProt P52333); conditions: target JAK3; read-out: CP1 IC50
Procedure: as §1

LCK = LCK (Homo sapiens, UniProt P06239); conditions: target LCK; read-out: CP1 IC50
Procedure: as §1

MST1R = MST1R (Homo sapiens, UniProt Q04912); conditions: target MST1R; read-out: CP1 IC50
Procedure: as §1

PDGFRB = target: T15, PDGFRB (Homo sapiens, UniProt P09619); conditions: target PDGFRB; read-out: CP1 IC50
T15 construct: assay run by ICE Biosciences (Beijing, China)
Procedure: as §1

PRDX4 = target: T16, PRDX4 (Homo sapiens, UniProt Q13162); conditions: target PRDX4; read-out: CP1 IC50
T16 construct: ICE Biosciences (Beijing, China), ran the assays
Procedure: as §1

PRDX5 = target: T17, PRDX5 (Homo sapiens, UniProt P30044); conditions: target PRDX5; read-out: CP1 IC50
T17 construct: ICE Biosciences (Beijing, China), ran the assays
Procedure: as §1

PRDX6 = target: T18, PRDX6 (Homo sapiens, UniProt P30041)
T18 construct: ICE Biosciences (Beijing, China), ran the assays
T18 sequence (P30041 whole entry): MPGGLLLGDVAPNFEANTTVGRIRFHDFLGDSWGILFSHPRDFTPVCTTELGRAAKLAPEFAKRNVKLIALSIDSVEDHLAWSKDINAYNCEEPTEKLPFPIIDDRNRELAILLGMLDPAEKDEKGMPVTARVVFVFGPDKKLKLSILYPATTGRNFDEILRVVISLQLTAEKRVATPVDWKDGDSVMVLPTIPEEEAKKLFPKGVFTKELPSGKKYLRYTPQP
Procedure: as §1

PTK6 = target: T19, PTK6 (Homo sapiens, UniProt Q13882); conditions: target PTK6; read-out: CP1 IC50
T19 construct: assay run by ICE Biosciences (Beijing, China)
Procedure: as §1

ROS1 = target: T20, ROS1 (Homo sapiens, UniProt P08922); conditions: target ROS1; read-out: CP1 IC50
T20 construct: assay run by ICE Biosciences (Beijing, China)
Procedure: as §1

SRMS = target: T21, SRMS (Homo sapiens, UniProt Q9H3Y6); conditions: target SRMS; read-out: CP1 IC50
T21 construct: assay run by ICE Biosciences (Beijing, China)
Procedure: as §1

SYK = target: T22, SYK (Homo sapiens, UniProt P43405); conditions: target SYK; read-out: CP1 IC50
T22 construct: assay run by ICE Biosciences (Beijing, China)
Procedure: as §1

TNK2 = target: T23, TNK2 (Homo sapiens, UniProt Q07912); conditions: target TNK2; read-out: CP1 IC50
T23 construct: assay run by ICE Biosciences (Beijing, China)
T23 sequence (Q07912 whole entry): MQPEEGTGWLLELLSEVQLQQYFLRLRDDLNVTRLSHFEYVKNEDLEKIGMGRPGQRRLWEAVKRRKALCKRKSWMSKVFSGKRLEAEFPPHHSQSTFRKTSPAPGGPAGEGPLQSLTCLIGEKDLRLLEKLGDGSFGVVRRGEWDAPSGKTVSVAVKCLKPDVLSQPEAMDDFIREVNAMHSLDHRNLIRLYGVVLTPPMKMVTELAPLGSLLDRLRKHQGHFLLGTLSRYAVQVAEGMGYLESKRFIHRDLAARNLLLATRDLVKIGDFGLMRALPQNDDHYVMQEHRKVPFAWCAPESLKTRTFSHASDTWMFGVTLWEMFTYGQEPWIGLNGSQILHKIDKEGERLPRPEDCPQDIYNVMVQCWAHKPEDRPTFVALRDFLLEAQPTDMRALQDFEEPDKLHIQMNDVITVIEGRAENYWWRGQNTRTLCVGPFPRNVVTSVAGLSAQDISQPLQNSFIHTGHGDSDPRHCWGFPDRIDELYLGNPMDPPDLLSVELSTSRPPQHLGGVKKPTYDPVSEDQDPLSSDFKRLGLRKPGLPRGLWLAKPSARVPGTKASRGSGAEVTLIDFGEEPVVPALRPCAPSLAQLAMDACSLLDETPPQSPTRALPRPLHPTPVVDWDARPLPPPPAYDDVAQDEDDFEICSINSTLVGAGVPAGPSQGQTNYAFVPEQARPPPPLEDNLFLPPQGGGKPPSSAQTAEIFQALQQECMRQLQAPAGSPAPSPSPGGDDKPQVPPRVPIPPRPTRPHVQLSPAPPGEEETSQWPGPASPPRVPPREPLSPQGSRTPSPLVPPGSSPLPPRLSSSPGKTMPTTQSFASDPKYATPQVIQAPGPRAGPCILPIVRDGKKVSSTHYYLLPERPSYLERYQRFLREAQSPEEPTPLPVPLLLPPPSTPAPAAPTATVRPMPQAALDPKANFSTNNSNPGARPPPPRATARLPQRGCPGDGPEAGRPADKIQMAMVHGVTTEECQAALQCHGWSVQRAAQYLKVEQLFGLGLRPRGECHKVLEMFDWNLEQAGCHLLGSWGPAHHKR
Procedure: as §1

TXK = target: T24, TXK (Homo sapiens, UniProt P42681); conditions: target TXK; read-out: CP1 IC50
T24 construct: ICE Biosciences (Beijing, China), a contract laboratory that ran the assay
Procedure: as §1

TYRO3 = target: T25, TYRO3 (Homo sapiens, UniProt Q06418); conditions: target TYRO3; read-out: CP1 IC50
T25 construct: ICE Biosciences (Beijing, China), a contract laboratory that ran the assay
Procedure: as §1

YES1 = target: T26, YES1 (Homo sapiens, UniProt P07947); conditions: target YES1; read-out: CP1 IC50
T26 construct: ICE Biosciences (Beijing, China), a contract laboratory that ran the assay
Procedure: as §1

Measured: IC50

CC1=C(CC(=O)/C=C/c2cccc(CO)c2)C(=O)C=C2C1=CC=C1[C@@]2(C)CC[C@@]2(C)C3C[C@](C)(C(=O)CCc4nc(C(O)C(O)O)c(C)nc4C)CC[C@]3(C)CC[C@]12C (stereo partly shown) [CP1]
> 30 µM: all assays above

— publication PMC12325182, “Discovery of novel and potent celastrol derivatives as PRDX1 inhibitors for cancer therapy through structure-based virtual screening” (Frontiers in Pharmacology, 2025)
